{"source": "patent US20190119348A1", "about": "“PARATHYROID HORMONE RECEPTOR 1 ANTAGONIST AND INVERSE AGONIST POLYPEPTIDES AND METHODS OF THEIR USE” (The General Hospital Corporation, priority 2016, published 2019)", "key": {"PTHR1 [1]": {"target": "T1, PTHR1 (Homo sapiens, UniProt Q03431)", "T1 construct": "expressed in transfected cells; host or cells: GP-2.3 (HEK-293 stably transfected with hPTHR1 and GloSensor)", "T1 sequence (Q03431 27-593)": "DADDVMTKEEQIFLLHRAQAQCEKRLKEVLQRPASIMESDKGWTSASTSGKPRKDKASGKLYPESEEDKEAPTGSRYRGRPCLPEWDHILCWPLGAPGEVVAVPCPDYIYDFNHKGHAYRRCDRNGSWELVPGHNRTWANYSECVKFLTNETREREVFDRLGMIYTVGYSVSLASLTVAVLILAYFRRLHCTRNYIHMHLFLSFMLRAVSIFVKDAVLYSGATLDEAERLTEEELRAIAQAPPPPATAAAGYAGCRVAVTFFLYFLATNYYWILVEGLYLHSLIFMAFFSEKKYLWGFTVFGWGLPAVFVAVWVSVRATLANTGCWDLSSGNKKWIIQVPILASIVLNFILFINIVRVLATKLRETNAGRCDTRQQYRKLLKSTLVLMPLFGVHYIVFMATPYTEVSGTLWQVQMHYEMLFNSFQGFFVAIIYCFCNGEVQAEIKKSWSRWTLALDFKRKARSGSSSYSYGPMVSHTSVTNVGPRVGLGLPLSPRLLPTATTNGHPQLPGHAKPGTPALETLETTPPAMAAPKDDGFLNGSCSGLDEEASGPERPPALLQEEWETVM", "test": "Antagonism of PTH(1-34)-induced cAMP response (GloSensor) in GP-2.3 cells", "type": "cell-based", "conditions": "inhibition of PTH(1-34)-induced maximum response, read-out: corresponding nanomolar value of pIC50 (Table 4) (converted)", "method": "(§1) cAMP signaling was assessed in the HEK293-derived or SaOS2-derived cell lines stably expressing the luciferase-based GloSensor™ cAMP reporter (Hattersley et al., Paper presented at: Novel Signaling Mechanisms and Bone Cell Biology 2014; Binkowski et al., Methods in molecular biology. 756:263-271). HEK-293 cells were further transfected to stably express the hPTHR1, hPTHR1-H223R, or hPTHR1-T410P. The cells were seeded into 96-well white plates and were assayed 24 to 48 hours post-confluency. Assays were performed at room temperature in CO2-independent culture media (Life Technologies, Corp., Carlsbad, Calif.) containing 0.1% BSA (CIDB). The cells were pre-loaded with luciferin (0.5 mM in CIDB) for 15 minutes, then PTH peptides were added at varying concentrations. cAMP-dependent luminescence was measured at two-minute intervals using a PerkinElmer Envision plate reader. The time at which maximum luminescence (cps) observed with agonist alone, typically at 10-20 minutes after agonist addition, was used to obtain data from wells containing antagonist with or without agonist, to thus generate antagonist ligand dose-response curves. The resulting cps values were then plotted against ligand concentration using GraphPad Prism 7.0 software and a four-parameter logistics curve fitting equation, which yielded parameters of inhibitory potency (pIC50).\nPharmacological properties of the ligands were assessed in cells expressing the PTHR1 and the GloSensor™ cAMP reporter. The assays used GP-2.3 cells, derived from HEK293 cells by stable transfection with the hPTHR1 and GloSensor™, as well as SGS-72 cells, which are derived from the human osteosarcoma cell line, Saos-2, in which is endogenously expressed the hPTHR1, by stable transfection with GloSensor™. Binding of representative polypeptides to the PTHR1 was assessed in GP-2.3 cells by radioligand competition methods (FIGS. 1A and 1B, Table 3).\n[…] concentration of antagonist that inhibited the maximum response to PTH(1-34)-induced in the absence of antagonist (at ˜40 minutes) is reported in units of -log M (pIC50), and the corresponding nanomolar value is shown below each pIC50 value. Data are means of the number of experiments indicated (n). The PTH(1-34)-induced maximum luminescence was ˜80,000 cps and the basal was ˜1,000 cps. TMR indicates Lys13 modified at epsilon amino function with TMR, P vs. inhibition by dW12,Y34-bPTH(7-34)."}, "PTHR1 [2]": {"target": "T2, PTHR1 (Mus musculus, UniProt P41593)", "T2 sequence (P41593 27-591)": "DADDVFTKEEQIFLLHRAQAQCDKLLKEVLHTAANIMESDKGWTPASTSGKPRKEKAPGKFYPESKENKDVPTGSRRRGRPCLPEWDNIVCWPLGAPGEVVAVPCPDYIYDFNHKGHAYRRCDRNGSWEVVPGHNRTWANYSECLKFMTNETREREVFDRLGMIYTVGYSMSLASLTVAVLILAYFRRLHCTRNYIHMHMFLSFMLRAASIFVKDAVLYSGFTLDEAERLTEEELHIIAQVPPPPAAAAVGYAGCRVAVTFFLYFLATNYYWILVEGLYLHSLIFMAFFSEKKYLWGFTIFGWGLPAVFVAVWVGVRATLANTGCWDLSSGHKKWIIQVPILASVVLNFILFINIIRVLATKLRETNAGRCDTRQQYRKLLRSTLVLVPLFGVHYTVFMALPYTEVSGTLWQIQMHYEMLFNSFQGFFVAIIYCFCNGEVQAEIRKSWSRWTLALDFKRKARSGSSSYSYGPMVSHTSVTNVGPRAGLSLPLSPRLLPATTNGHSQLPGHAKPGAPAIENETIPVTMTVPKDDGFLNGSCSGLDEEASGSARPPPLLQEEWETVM", "test": "Blood Ca2+ in wild-type mice after co-injection with PTH(1-34)", "type": "in vivo", "design": "from tissue; host or cells: whole animal, wild-type mice (C57BL/6J per methods)", "conditions": "intravenous co-injection with PTH(1-34)", "from_the_text": "Wilde-type, ca. 10-week old male C57BL/6J mice were purchased from the Charles River Laboratories (Wilmington, Mass., USA). The origin and method of breeding of Col1-H223R “Jansen's” transgenic mice is described by Calvi et al. (J. Clin. Invest., 107:277-286, 2001). Mice were maintained in facilities operated by the Center for Comparative Research of the Massachusetts General Hospital, and acclimated in the facilities for seven days prior to being used for study. All experimental procedures were approved by the MGH Institutional Animal Care and Use Committee (IACUC). In each study, animals were assigned randomly to treatment groups. Where possible, power calculations established that the number of animals used per study group was sufficient to detect statistically significant differences in intended primary experimental outcomes (i.e., changes in serum Ca and Pi).\nMice were injected IV via the tail vein or subcutaneously with ligands in vehicle (0.05% Tween80; 10 mM citrate; 150 mM NaCl; pH 5.0) to give the intended final ligand dose (e.g. 50 nmol/kg body weight). At times immediately before (t=0) and after injection, tail vein blood was collected and analyzed for blood ionized calcium (Ca^2+) measured with a RAPIDLAB 348 analyzer (SIEMENS Healthcare Diagnostic, United Kingdom)."}, "PTHR1 [3]": {"target": "T1, PTHR1", "test": "Residual agonist activity, cAMP luminescence in GP-2.3 cells", "type": "cell-based", "conditions": "ligands applied directly to GP-2.3 cells", "method": "as §1"}}, "note": "Where a SMILES comes first, the peptide text is derived from it. [ ]: non-standard residue; d: D form."}
{"smiles": "CC[C@H](C)[C@H](N)C(=O)N[C@@H](CCC(N)=O)C(=O)N[C@@H](CC(C)C)C(=O)N[C@@H](CCSC)C(=O)N[C@@H](Cc1c[nH]cn1)C(=O)N[C@@H](CCC(N)=O)C(=O)N[C@@H](CCCNC(=N)N)C(=O)N[C@H](Cc1c[nH]c2ccccc12)C(=O)N[C@@H](CCCCN)C(=O)N[C@@H](Cc1c[nH]c2ccccc12)C(=O)N[C@H](C(=O)N[C@@H](CCC(N)=O)C(=O)N[C@@H](CC(=O)O)C(=O)N[C@@H](C)C(=O)N[C@@H](CCCNC(=N)N)C(=O)N[C@@H](CCCNC(=N)N)C(=O)N[C@@H](CCCNC(=N)N)C(=O)N[C@@H](C)C(=O)N[C@@H](Cc1c[nH]c2ccccc12)C(=O)N[C@@H](CC(C)C)C(=O)N[C@@H](Cc1c[nH]cn1)C(=O)N[C@@H](CCCCN)C(=O)N[C@@H](CC(C)C)C(=O)N[C@H](C(=O)N[C@@H](C)C(=O)N[C@@H](CCC(=O)O)C(=O)N[C@H](C(=O)N[C@@H](Cc1c[nH]cn1)C(=O)N[C@H](C(=O)N[C@@H](C)C(=O)N[C@@H](CCC(=O)O)C(=O)N[C@H](C(N)=O)[C@@H](C)CC)[C@@H](C)O)[C@@H](C)CC)[C@@H](C)CC)[C@@H](C)CC", "note": "[compound 1949, dW12, W23-LA-PTH(5-36)] (H-IQLMHQR[dW]KWIQDARRRAWLHKLIAEIHTAEI-NH2; N-terminus assumed)", "values": [{"measurement": "IC50", "setting": "PTHR1 [1]", "value": 101, "unit": "nM"}, {"measurement": "effect on calcemic response to PTH(1-34) (FIG. 11)", "setting": "PTHR1 [2]", "value": "inhibited the capacity of the injected PTH(1-34) agonist to induce a calcemic response"}, {"measurement": "residual agonist activity compared with dTrp^12-PTH(7-34)-1894", "setting": "PTHR1 [3]", "value": "less residual agonist activity"}]}
